Results taken from publication PMC7897990, “TriTOX: A novel Trichomonas vaginalis assay platform for high-throughput screening of compound libraries” (International Journal for Parasitology: Drugs and Drug …, 2021).

Tests used:
[1] = test system: Trichomonas vaginalis G3 trophozoites; details: HTS single concentration, parasite screen 1 µg/mL; for T.vaginalis_%inb_Rep1: replicate 1; for T.vaginalis_%inb_Rep2: replicate 2
[2] = test system: nontumorigenic neonatal foreskin fibroblast (NFF) cell line; details: NFF_NS1 screen 5 µg/mL, single concentration

Compound	T.vaginalis_%inb_Rep1 [1] [%]	T.vaginalis_%inb_Rep2 [1] [%]	NFF_Activity [2]
C=CC(C)(C)C12CC3C(=O)N4C(CC5(C(C)(C)C=C)c6ccccc6NC45)C(=O)N3C1Nc1ccccc12 (stereo not drawn) [BIA-A1631]	14.16	13.96	I (otherwise these were reported as inactive (I))
O=C(N[C@H](COC(=O)[C@H](Cc1ccccc1)NC(=O)c1ccccc1)Cc1ccccc1)c1ccccc1 [BIA-A1643]	13.09	15.04	I (otherwise these were reported as inactive (I))
COC1=C(OC)C(=O)C(C)=C(C)C1=O [BIA-A1654]	13.09	16.34	A (active (A) compounds having >25% inhibitory activity)
C=CC(C)(C)C12CC3C(=O)Nc4ccccc4C(=O)N3C1Nc1ccccc12 (stereo not drawn) [BIA-A1686]	14.16	12.87	I (otherwise these were reported as inactive (I))
C=CC(C)(C)C12CC3C(=O)Nc4ccccc4C(=O)N3C1N(C(C)=O)c1ccccc12 (stereo not drawn) [BIA-A1687]	18.36	16.20	I (otherwise these were reported as inactive (I))
CCCCCCCCCCCCCCCc1cc(O)cc(O)c1 [BIA-A1689]	16.26	11.86	I (otherwise these were reported as inactive (I))
O=[N+]([O-])c1ncc[nH]1 [BIA-A1690]	15.19	9.83	I (otherwise these were reported as inactive (I))
CC(=O)NCCc1ccc(O)cc1 [BIA-A1731]	13.35	10.05	I (otherwise these were reported as inactive (I))
CC(=O)NCCc1c[nH]c2ccccc12 [BIA-A1732]	14.43	33.62	I (otherwise these were reported as inactive (I))
CC(=O)NCCc1cnc[nH]1 [BIA-A1737]	14.86	38.90	I (otherwise these were reported as inactive (I))
CC(=O)NCCc1c[nH]c2ccc(O)cc12 [BIA-A1738]	13.41	15.18	I (otherwise these were reported as inactive (I))
CC1(C)CC[C@]2(C(=O)O)CC[C@]3(C)C(=CC[C@@H]4[C@@]5(C)C[C@@H](O)[C@H](O)[C@@](C)(CO)[C@@H]5CC[C@]43C)[C@@H]2C1 [BIA-A1754]	13.25	12.44	I (otherwise these were reported as inactive (I))
O=C1c2c(O)cc(O)cc2OC1(O)Cc1ccc(O)c(O)c1 (stereo not drawn) [BIA-A1767]	15.13	38.61	I (otherwise these were reported as inactive (I))
CC(=O)OCC1=C[C@@H]2OC(=O)C3=CO[C@@H](O[C@@H]4O[C@H](CO)[C@@H](O)[C@H](O)[C@H]4O)[C@H]1[C@@H]32 [BIA-A1774]	16.59	15.84	I (otherwise these were reported as inactive (I))
CC(=O)OC[C@]12[C@H](O)C(=O)C(C)=C[C@H]1O[C@@H]1[C@H](O)C[C@@]2(C)[C@]12CO2 [BIA-A1922]	7.13	15.54	I (otherwise these were reported as inactive (I))
C=CCNC1=C2CC(C)CC(OC)C(O)C(C)C=C(C)C(OC(N)=O)C(OC)C=CC=C(C)C(=O)NC(=CC1=O)C2=O (stereo not drawn) [BIA-A1923]	11.27	34.13	I (otherwise these were reported as inactive (I))
CO[C@H]1/C=C\C=C(/C)C(=O)NC2=CC(=O)C(NCCN(C)C)=C(C[C@@H](C)C[C@H](OC)[C@H](O)[C@@H](C)/C=C(\C)[C@@H]1OC(N)=O)C2=O [BIA-A1924]	5.66	62.10	A (active (A) compounds having >25% inhibitory activity)
CC(=O)O[C@@H]1C[C@]2(C)[C@@]3(CO)[C@H](O)C(=O)C(C)=C[C@H]3O[C@H]1[C@@]21CO1 [BIA-A1925]	9.96	14.14	I (otherwise these were reported as inactive (I))
Cc1cc(O)cc2oc(=O)c3c(O)cc(O)cc3c12 [BIA-A1926]	6.66	9.26	I (otherwise these were reported as inactive (I))
O=c1cccc2n1C[C@H]1C[C@@H]2CN2CCCC[C@H]12 [BIA-A1939]	7.92	14.14	I (otherwise these were reported as inactive (I))
CC(=O)OC[C@]12CCC(C)=C[C@H]1O[C@@H]1[C@H](O)[C@@H](O)[C@@]2(C)[C@]12CO2 [BIA-A1982]	9.02	12.13	A (active (A) compounds having >25% inhibitory activity)
COC1=CC(C)=CC(C)C(O)C(C)CC(C)=CC=CC(OC)C(C(C)C(O)C(C)C2(O)CC(O)C(C)C(C(C)C)O2)OC1=O (stereo not drawn) [BIA-B1012]	15.99	16.70	I (otherwise these were reported as inactive (I))
COC1=CC(C)=CC(C)C(O)C(C)CC(C)=CC=CC(OC)C(C(C)C(O)C(C)C2(O)CC(OC(=O)C=CC(=O)NC3=C(O)CCC3=O)C(C)C(C(C)C)O2)OC1=O (stereo not drawn) [BIA-B1110]	72.75	93.35	I (otherwise these were reported as inactive (I))
COC1=CC(C)=CC(C)C(O)C(C)CC(C)=CC=CC(OC)C(C(C)C(O)C(C)C(=O)C=CC(C)C(O)C(C)C)OC1=O (stereo not drawn) [BIA-B1162]	15.67	18.37	I (otherwise these were reported as inactive (I))
CC(C)[C@@H]1OC(=O)[C@@H](Cc2ccccc2)N(C)C(=O)[C@H](C(C)C)OC(=O)[C@@H](Cc2ccccc2)N(C)C(=O)[C@H](C(C)C)OC(=O)[C@@H](Cc2ccccc2)N(C)C1=O [BIA-B1238]	16.21	4.70	I (otherwise these were reported as inactive (I))
CC(C)C[C@H](NC(=O)[C@@H](O)[C@H](N)Cc1ccccc1)C(=O)O [BIA-B1278]	14.49	15.84	I (otherwise these were reported as inactive (I))
C=C1CCOC2(C(O)C(C)(O)CO)NC(=O)C1(O)NC2=O (stereo not drawn) [BIA-B1367]	15.02	15.26	I (otherwise these were reported as inactive (I))
CC(C)C[C@H]1C(=O)O[C@H](C(C)C)C(=O)N(C)[C@@H](CC(C)C)C(=O)O[C@H](C(C)C)C(=O)N(C)[C@@H](CC(C)C)C(=O)O[C@H](C(C)C)C(=O)N(C)[C@@H](CC(C)C)C(=O)O[C@H](C(C)C)C(=O)N1C [BIA-B1557]	15.24	16.12	I (otherwise these were reported as inactive (I))
CN1C(=O)c2ccccc2-n2c(nc3ccccc3c2=O)C1=Cc1ccccc1 [BIA-B1646]	16.10	13.67	I (otherwise these were reported as inactive (I))
